Assays:
[1] = target: Serine/threonine-protein kinase B-raf (Homo sapiens, UniProt P15056, V600E); assay: Inhibition of B-raf V600E mutant (unknown origin) expressed in Sf9 cells using biotin-MEK1substrate incubated for 1 hr
[2] = target: Vascular endothelial growth factor receptor 2 (Homo sapiens, UniProt P35968); assay: Inhibition of KDR (unknown origin) by FRET assay
[3] = target: Mast/stem cell growth factor receptor Kit (Homo sapiens, UniProt P10721); assay: Inhibition of Kit (unknown origin) expressed in Escherichia coli
[4] = target: RAF proto-oncogene serine/threonine-protein kinase (Homo sapiens, UniProt P04049); assay: Inhibition of human C-raf using biotin-MEK1 substrate incubated for 1 hr
[5] = target: Serine/threonine-protein kinase B-raf (Homo sapiens, UniProt P15056); assay: Inhibition of N-terminal GST-tagged human recombinant B-Raf (416 to end residues) using biotin-MEK1 substrate incubated for 1 hr
[6] = target: Proto-oncogene tyrosine-protein kinase Src (Homo sapiens, UniProt P12931); assay: Inhibition of Src (unknown origin) expressed in Escherichia coli using biotin-(E4Y)3 substrate
[7] = target: T1, Tyrosine-protein kinase Tec (Homo sapiens, UniProt P42680); assay: Inhibition of TEC (unknown origin)
T1 sequence (P42680 whole entry): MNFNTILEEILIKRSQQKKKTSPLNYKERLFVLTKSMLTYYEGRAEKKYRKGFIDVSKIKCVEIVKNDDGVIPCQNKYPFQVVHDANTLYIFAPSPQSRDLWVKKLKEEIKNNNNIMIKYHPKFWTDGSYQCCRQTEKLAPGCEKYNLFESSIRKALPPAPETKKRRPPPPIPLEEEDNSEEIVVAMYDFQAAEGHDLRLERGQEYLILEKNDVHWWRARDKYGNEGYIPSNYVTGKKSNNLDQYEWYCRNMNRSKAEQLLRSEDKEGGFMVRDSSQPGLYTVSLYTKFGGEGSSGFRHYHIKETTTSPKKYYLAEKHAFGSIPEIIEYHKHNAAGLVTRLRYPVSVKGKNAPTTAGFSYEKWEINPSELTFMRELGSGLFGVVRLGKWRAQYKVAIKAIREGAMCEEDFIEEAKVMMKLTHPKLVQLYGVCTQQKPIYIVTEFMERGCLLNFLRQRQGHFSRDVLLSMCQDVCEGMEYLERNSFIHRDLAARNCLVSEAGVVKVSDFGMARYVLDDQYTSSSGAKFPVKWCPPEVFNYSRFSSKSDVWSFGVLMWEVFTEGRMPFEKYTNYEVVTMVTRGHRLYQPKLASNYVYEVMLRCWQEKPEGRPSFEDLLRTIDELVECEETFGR

[8] = target: Macrophage colony-stimulating factor 1 receptor (Homo sapiens, UniProt P07333); assay: Inhibition of Fms (unknown origin)
[9] = target: T2, Serine/threonine-protein kinase A-Raf (Homo sapiens, UniProt P10398); assay: Inhibition of A-Raf (unknown origin)
T2 sequence (P10398 whole entry): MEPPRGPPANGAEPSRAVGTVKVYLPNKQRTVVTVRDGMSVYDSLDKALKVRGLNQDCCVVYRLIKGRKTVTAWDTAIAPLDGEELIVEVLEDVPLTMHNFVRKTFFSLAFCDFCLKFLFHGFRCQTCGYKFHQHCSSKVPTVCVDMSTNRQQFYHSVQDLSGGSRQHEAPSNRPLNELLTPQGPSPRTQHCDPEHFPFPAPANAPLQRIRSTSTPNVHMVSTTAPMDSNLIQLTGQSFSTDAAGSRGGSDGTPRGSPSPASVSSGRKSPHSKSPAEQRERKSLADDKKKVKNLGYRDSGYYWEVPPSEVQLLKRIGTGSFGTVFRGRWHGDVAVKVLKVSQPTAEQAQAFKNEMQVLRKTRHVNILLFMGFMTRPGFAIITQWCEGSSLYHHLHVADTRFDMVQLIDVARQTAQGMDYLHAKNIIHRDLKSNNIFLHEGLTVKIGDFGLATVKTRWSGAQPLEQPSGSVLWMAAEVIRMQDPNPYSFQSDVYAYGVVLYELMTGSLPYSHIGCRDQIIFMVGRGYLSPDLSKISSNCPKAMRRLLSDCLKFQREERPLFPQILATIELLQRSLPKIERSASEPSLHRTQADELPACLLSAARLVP

[10] = target: High affinity nerve growth factor receptor (Homo sapiens, UniProt P04629); assay: Inhibition of TrkA (unknown origin)

Measured: IC50

Serine/threonine-protein kinase B-raf (Homo sapiens, UniProt P15056, V600E), sequence (P15056 2-766 V600E limits assumed): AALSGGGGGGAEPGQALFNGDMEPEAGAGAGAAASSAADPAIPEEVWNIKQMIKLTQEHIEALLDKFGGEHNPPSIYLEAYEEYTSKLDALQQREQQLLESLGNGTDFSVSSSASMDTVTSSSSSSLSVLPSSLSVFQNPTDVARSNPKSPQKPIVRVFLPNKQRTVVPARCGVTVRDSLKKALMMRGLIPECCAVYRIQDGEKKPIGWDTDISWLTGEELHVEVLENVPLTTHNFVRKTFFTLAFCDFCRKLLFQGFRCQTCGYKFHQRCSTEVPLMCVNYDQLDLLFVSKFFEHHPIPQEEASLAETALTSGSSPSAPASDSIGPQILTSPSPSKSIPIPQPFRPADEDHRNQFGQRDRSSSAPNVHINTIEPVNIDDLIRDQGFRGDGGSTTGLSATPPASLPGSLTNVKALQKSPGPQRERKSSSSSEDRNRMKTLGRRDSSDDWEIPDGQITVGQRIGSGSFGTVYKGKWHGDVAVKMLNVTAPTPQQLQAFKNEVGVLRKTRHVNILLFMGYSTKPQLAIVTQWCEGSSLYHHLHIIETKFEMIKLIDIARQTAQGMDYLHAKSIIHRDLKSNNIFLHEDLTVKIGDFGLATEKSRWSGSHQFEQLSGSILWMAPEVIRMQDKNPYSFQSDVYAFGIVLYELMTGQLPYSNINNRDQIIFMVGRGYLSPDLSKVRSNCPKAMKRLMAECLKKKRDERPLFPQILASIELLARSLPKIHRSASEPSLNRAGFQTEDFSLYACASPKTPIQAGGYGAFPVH
RAF proto-oncogene serine/threonine-protein kinase, sequence (P04049 whole entry): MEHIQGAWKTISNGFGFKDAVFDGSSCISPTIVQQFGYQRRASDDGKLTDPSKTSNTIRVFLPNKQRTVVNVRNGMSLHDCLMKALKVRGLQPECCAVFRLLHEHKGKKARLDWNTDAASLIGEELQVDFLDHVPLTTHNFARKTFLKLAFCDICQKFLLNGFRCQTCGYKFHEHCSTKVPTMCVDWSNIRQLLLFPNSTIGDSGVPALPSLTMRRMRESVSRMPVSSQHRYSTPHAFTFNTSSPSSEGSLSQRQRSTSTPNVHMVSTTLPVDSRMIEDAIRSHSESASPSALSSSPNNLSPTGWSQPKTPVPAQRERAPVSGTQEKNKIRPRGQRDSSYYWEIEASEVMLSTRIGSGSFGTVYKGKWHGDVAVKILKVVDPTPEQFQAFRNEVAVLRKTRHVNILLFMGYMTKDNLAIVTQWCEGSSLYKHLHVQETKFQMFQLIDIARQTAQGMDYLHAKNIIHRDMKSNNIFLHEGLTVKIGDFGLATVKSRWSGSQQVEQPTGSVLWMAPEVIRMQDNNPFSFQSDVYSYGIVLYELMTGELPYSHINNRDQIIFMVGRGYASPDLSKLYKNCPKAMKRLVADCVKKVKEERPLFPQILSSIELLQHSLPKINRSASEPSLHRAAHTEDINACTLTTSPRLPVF
Serine/threonine-protein kinase B-raf (Homo sapiens, UniProt P15056), sequence (P15056 whole entry): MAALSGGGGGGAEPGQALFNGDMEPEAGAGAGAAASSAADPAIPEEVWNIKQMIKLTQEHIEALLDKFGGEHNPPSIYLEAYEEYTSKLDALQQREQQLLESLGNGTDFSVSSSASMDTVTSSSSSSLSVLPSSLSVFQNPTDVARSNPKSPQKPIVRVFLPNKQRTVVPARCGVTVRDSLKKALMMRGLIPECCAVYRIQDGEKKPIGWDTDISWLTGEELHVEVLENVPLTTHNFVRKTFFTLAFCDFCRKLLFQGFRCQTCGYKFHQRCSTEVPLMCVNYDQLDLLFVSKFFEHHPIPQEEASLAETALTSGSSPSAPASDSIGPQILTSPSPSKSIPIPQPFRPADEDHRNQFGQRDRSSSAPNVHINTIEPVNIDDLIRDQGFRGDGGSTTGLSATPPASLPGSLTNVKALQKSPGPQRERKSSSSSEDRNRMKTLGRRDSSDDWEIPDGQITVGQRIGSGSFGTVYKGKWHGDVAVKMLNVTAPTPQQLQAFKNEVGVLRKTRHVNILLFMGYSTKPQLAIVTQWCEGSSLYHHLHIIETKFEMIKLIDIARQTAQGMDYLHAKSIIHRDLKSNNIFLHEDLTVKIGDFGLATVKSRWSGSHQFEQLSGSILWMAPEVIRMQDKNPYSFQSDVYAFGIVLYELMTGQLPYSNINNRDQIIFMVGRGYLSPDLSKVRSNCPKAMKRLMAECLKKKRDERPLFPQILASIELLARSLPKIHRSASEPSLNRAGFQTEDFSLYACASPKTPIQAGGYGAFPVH
Mast/stem cell growth factor receptor Kit, sequence (P10721 whole entry): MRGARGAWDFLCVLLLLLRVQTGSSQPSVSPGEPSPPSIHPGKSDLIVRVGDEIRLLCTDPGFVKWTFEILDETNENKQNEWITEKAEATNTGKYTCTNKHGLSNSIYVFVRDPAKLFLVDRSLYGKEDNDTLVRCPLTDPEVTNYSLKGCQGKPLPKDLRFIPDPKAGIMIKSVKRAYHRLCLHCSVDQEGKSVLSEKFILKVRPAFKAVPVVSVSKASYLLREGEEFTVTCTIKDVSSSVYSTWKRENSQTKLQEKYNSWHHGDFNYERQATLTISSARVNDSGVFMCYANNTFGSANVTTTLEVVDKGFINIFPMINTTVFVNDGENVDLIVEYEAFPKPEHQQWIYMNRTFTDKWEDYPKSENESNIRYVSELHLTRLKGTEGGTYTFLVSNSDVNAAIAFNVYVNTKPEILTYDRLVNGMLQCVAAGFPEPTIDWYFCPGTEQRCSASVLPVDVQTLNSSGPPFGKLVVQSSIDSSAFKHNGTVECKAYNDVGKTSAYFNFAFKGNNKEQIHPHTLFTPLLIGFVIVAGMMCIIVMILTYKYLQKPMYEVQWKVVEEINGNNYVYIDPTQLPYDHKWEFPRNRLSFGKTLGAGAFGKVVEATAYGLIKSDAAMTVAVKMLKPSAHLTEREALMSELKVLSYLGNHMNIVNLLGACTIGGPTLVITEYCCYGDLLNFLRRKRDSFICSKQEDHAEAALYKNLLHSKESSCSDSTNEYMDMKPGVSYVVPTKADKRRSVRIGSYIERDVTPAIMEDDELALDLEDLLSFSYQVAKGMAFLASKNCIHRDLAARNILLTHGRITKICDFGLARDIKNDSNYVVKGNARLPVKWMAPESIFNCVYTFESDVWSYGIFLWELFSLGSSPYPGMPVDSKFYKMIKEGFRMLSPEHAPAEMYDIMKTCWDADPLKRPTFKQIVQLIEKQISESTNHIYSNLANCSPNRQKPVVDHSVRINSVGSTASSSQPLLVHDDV
Vascular endothelial growth factor receptor 2, sequence (P35968 whole entry): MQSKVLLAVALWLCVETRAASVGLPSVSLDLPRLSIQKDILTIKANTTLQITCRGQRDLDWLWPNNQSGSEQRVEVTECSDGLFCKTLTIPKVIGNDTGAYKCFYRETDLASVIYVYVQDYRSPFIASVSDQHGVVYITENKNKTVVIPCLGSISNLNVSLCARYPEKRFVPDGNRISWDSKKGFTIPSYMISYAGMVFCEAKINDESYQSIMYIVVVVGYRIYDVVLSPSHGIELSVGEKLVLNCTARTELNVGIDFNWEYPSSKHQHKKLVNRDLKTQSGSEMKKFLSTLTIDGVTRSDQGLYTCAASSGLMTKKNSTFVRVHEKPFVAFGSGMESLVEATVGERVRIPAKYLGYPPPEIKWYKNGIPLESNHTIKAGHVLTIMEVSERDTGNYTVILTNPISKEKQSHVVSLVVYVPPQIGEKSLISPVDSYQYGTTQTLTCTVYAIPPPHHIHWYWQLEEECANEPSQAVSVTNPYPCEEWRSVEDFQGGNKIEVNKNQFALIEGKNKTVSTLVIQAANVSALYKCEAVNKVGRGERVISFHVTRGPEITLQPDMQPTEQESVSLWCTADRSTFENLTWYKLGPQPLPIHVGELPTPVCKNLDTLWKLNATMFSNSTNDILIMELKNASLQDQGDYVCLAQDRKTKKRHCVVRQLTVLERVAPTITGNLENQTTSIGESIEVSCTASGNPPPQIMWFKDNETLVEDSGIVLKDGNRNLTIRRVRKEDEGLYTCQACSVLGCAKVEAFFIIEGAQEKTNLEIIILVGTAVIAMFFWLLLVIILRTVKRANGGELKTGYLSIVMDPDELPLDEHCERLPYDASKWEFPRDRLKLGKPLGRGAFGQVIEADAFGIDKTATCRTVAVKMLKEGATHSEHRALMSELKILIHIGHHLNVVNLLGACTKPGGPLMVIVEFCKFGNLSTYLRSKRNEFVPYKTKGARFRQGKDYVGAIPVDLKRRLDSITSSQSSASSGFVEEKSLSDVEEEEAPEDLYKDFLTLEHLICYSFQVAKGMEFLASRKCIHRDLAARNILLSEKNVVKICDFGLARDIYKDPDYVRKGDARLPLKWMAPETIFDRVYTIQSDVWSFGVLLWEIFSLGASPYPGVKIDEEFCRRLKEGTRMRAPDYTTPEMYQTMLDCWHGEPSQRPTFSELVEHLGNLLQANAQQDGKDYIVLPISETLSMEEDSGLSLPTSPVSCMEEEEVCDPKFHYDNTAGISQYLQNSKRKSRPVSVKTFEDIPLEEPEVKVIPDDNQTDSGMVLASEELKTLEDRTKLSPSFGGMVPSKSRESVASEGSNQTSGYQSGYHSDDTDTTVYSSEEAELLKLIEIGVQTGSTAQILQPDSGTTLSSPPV
Proto-oncogene tyrosine-protein kinase Src, sequence (P12931 2-536 limits assumed): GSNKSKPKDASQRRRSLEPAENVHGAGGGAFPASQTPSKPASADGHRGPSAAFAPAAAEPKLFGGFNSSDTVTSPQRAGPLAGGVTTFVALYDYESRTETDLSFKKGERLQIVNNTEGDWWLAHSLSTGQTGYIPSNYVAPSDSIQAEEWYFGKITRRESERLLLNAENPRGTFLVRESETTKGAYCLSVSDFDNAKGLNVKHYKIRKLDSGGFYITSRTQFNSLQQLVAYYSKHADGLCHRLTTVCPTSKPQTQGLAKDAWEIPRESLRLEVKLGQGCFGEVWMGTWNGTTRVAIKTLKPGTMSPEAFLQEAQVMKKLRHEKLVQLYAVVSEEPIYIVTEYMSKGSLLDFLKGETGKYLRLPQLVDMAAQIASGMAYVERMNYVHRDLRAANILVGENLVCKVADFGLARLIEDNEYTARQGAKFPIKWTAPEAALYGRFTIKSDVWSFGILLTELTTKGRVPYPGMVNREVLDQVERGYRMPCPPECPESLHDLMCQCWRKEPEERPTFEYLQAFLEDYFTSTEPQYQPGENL

O=C(c1cccc(NS(=O)(=O)C2CCC2)c1F)c1c[nH]c2ncncc12
≤ 10 µM: [1] | [2] | [3]

CN(C)S(=O)(=O)Nc1ccc(F)c(C(=O)c2c[nH]c3ncncc23)c1F
≤ 10 µM: [1] | [4] | [2]

O=C(c1cccc(NS(=O)(=O)c2cc(F)ccc2F)c1F)c1c[nH]c2ncncc12
≤ 10 µM: [5] | [4] | [2] | [3] | [6]

CCCC(C)S(=O)(=O)Nc1cccc(C(=O)c2c[nH]c3ncncc23)c1F (configuration not stated)
≤ 10 µM: [2] | [3]

CC(C)CS(=O)(=O)Nc1ccc(F)c(C(=O)c2c[nH]c3ncncc23)c1F
≤ 10 µM: [1] | [4] | [3]

O=C(c1cccc(NS(=O)(=O)C2CCCCC2)c1F)c1c[nH]c2ncncc12
≤ 10 µM: [1] | [4] | [3]

O=C(c1c(F)ccc(NS(=O)(=O)c2ccc(C(F)(F)F)cc2)c1F)c1c[nH]c2ncncc12
≤ 10 µM: [1] | [4] | [2] | [6] | [7]

CCS(=O)(=O)Nc1ccc(F)c(C(=O)c2c[nH]c3ncncc23)c1F
≤ 10 µM: [1] | [4]

O=C(c1c(F)ccc(NS(=O)(=O)c2cc(F)ccc2F)c1F)c1c[nH]c2ncncc12
≤ 10 µM: [5] | [4] | [2] | [3]

O=C(c1c(F)ccc(NS(=O)(=O)N2CCOCC2)c1F)c1c[nH]c2ncncc12
≤ 10 µM: [1] | [4] | [8] | [3]

O=C(c1c(F)ccc(NS(=O)(=O)c2cccc(F)c2)c1F)c1c[nH]c2ncncc12
≤ 10 µM: [5] | [4]

COc1ncnc2[nH]cc(C(=O)c3cccc(NS(=O)(=O)c4ccc(C(F)(F)F)cc4)c3F)c12
≤ 10 µM: [5] | [4] | [2]

CCC(C)S(=O)(=O)Nc1cccc(C(=O)c2c[nH]c3ncncc23)c1F (configuration not stated)
≤ 10 µM: [1] | [2] | [3]

CC(C)(C)c1ccc(S(=O)(=O)Nc2ccc(F)c(C(=O)c3c[nH]c4ncncc34)c2F)cc1
≤ 10 µM: [1] | [4] | [2]

O=C(c1c(F)ccc(NS(=O)(=O)c2ccccc2F)c1F)c1c[nH]c2ncncc12
≤ 10 µM: [5] | [4] | [2]

CC(C)c1ccc(S(=O)(=O)Nc2ccc(F)c(C(=O)c3c[nH]c4ncncc34)c2F)cc1
≤ 10 µM: [9] | [1] | [4] | [2]

O=C(c1c(F)ccc(NS(=O)(=O)C2CCC2)c1F)c1c[nH]c2ncncc12
≤ 10 µM: [1] | [4] | [2]

O=C(c1cccc(NS(=O)(=O)C2CCCC2)c1F)c1c[nH]c2ncncc12
≤ 10 µM: [1] | [4] | [2]

O=C(c1cccc(NS(=O)(=O)c2ccc(C(F)(F)F)cc2)c1F)c1c[nH]c2ncncc12
≤ 10 µM: [9] | [5] | [4]

CN(C)S(=O)(=O)Nc1cccc(C(=O)c2c[nH]c3ncncc23)c1F
≤ 10 µM: [1] | [3]

O=C(c1c(F)ccc(NS(=O)(=O)c2cccc(OC(F)F)c2)c1F)c1c[nH]c2ncncc12
≤ 10 µM: [9] | [1] | [4]

O=C(c1cccc(NS(=O)(=O)c2ccc(F)cc2F)c1F)c1c[nH]c2ncncc12
≤ 10 µM: [1] | [4] | [2]

O=C(c1c(F)ccc(NS(=O)(=O)CC(F)(F)F)c1F)c1c[nH]c2ncncc12
≤ 10 µM: [1] | [4]

O=C(c1c(F)ccc(NS(=O)(=O)c2ccccn2)c1F)c1c[nH]c2ncncc12
≤ 10 µM: [1] | [4]

CCCS(=O)(=O)Nc1ccc(F)c(C(=O)c2c[nH]c3ncnc(C)c23)c1F
≤ 10 µM: [1] | [4] | [8] | [2] | [3] | [6]

O=S(=O)(Nc1ccc(F)c(C(O)c2c[nH]c3ncnc(C4CC4)c23)c1F)c1ccc(C(F)(F)F)cc1 (configuration not stated)
≤ 10 µM: [8]

CCCc1ccc(S(=O)(=O)Nc2ccc(F)c(C(=O)c3c[nH]c4ncncc34)c2F)cc1
≤ 10 µM: [9] | [5] | [4]

O=C(c1cccc(NS(=O)(=O)c2cccc(F)c2)c1F)c1c[nH]c2ncncc12
≤ 10 µM: [5] | [4]

CC(C)S(=O)(=O)Nc1ccc(F)c(C(=O)c2c[nH]c3ncncc23)c1F
≤ 10 µM: [1] | [2]

CCCS(=O)(=O)Nc1cccc(C(=O)c2c[nH]c3ncncc23)c1F
≤ 10 µM: [9] | [1] | [4]

CC(C)CS(=O)(=O)Nc1cccc(C(=O)c2c[nH]c3ncncc23)c1F
≤ 10 µM: [1] | [4]

O=C(c1c(F)ccc(NS(=O)(=O)c2ccc(OC(F)F)cc2)c1F)c1c[nH]c2ncncc12
≤ 10 µM: [9] | [1] | [4]

O=C(c1cccc(NS(=O)(=O)c2ccc(F)cc2)c1F)c1c[nH]c2ncncc12
≤ 10 µM: [1]

O=C(c1cccc(NS(=O)(=O)c2ccccc2F)c1F)c1c[nH]c2ncncc12
≤ 10 µM: [5] | [4] | [2] | [6]

O=C(c1cccc(NS(=O)(=O)N2CCOCC2)c1F)c1c[nH]c2ncncc12
≤ 10 µM: [1] | [4] | [3] | [10]

O=C(c1c(F)ccc(NS(=O)(=O)c2ccc(F)cc2)c1F)c1c[nH]c2ncncc12
≤ 10 µM: [1] | [4]

COc1ncnc2[nH]cc(C(=O)c3c(F)ccc(NS(=O)(=O)c4ccc(C(F)(F)F)cc4)c3F)c12
≤ 10 µM: [5] | [4] | [6]

CCCS(=O)(=O)Nc1ccc(F)c(C(=O)c2c[nH]c3ncncc23)c1F
≤ 10 µM: [9] | [5] | [4] | [7]

O=C(c1c(F)ccc(NS(=O)(=O)c2ccc(F)cc2F)c1F)c1c[nH]c2ncncc12
≤ 10 µM: [1] | [4] | [8] | [2]

O=C(c1cccc(NS(=O)(=O)c2cccnc2)c1F)c1c[nH]c2ncncc12
≤ 10 µM: [1] | [4]

O=C(c1c(F)ccc(NS(=O)(=O)c2c(F)cccc2F)c1F)c1c[nH]c2ncncc12
≤ 10 µM: [1] | [4] | [2]

O=C(c1c(F)ccc(NS(=O)(=O)CCC(F)(F)F)c1F)c1c[nH]c2ncncc12
≤ 10 µM: [1] | [4] | [3]

CCCS(=O)(=O)Nc1cccc(C(=O)c2c[nH]c3ncnc(OC)c23)c1F
≤ 10 µM: [5] | [4] | [2] | [3] | [6]

O=C(c1c(F)ccc(NS(=O)(=O)C2CCCCC2)c1F)c1c[nH]c2ncncc12
≤ 10 µM: [1] | [4] | [8] | [2] | [3]

CCC(C)S(=O)(=O)Nc1ccc(F)c(C(=O)c2c[nH]c3ncncc23)c1F (configuration not stated)
≤ 10 µM: [1] | [4]

O=C(c1cccc(NS(=O)(=O)N2CCCC2)c1F)c1c[nH]c2ncncc12
≤ 10 µM: [1] | [4]

O=C(c1cccc(NS(=O)(=O)CC(F)(F)F)c1F)c1c[nH]c2ncncc12
≤ 10 µM: [1] | [4] | [10]

From ChEMBL document CHEMBL3727342, “Compounds and methods for kinase modulation, and indications therefor” (2012)
